Test results published in patent publication US6812236B2, “Compounds useful in therapy” (Pfizer Inc., priority 1999, dated 2004).

What follows are molecules tested against T1, mu opioid receptor (Canis lupus familiaris, UniProt A0A0F6TMT6) (assay: mu opioid receptor binding assay in dog brain membranes (3H-DAMGO displacement)). Settings: dog brain tissue, read-out: Ki values for the μ receptor.
T1 construct: Laboratory bred beagles were used as a source of dog brain tissue; from tissue; host or cells: beagle dog brain without cerebellum, washed membrane pellet
Procedure: The assays were conducted by the following procedure.
Laboratory bred beagles were used as a source of dog brain tissue. Animals were euthanised, their brains removed and the cerebellum discarded. The remaining brain tissue was sectioned into small pieces approximately 3 g in weight and homogenised in 50 mM Tris pH 7.4 buffer at 4° C. using a Kinematica Polytron™ tissue homogeniser. The resulting homogenate was centrifuged at 48,400× g for 10 minutes and the supernatant discarded. The pellet was resuspended in Tris buffer and incubated at 37° C. for 10 minutes. Centrifugation, resuspension and incubation steps were repeated twice more, and the final pellet was resuspended in Tris buffer and stored at −80° C. Membrane material prepared in this manner could be stored for up to four weeks prior to use.
For mu assays, increasing concentrations of experimental compound, (5×10^−12 to 10^−5 M), Tris buffer and ^3H ligand, ([D-Ala^2,N-Me-Phe^4,Gly-ol^5]-Enkephalin, DAMGO), were combined in polystyrene tubes. The reaction was initiated by the addition of tissue, and the mixture was incubated at room temperature for 90 minutes. The reaction was terminated by rapid filtration using a Brandel Cell Harvester™ through Betaplate™ GF/A glass fibre filters pre-soaked in 50 mM Tris pH 7.4, 0.1% polyethylenimine buffer. The filters were then washed three times with 0.5 mL ice-cold Tris pH 7.4 buffer. Washed filters were placed in bags and Starscint™ scintillant added. Bags containing the filters and scintillant were heat sealed and counted by a Betaplate™ 1204 beta counter.
Duplicate samples were run for each experimental compound and the data generated was analysed using IC50 analysis software in Graphpad Prism. Ki values were calculated using Graphpad Prism according to the following formula: […]
where IC50 is the concentration at which 50% of the ^3H ligand is displaced by the test compound and KD is the dissociation constant for the ^3H ligand at the receptor site.

T1 sequence (A0A0F6TMT6 1-401): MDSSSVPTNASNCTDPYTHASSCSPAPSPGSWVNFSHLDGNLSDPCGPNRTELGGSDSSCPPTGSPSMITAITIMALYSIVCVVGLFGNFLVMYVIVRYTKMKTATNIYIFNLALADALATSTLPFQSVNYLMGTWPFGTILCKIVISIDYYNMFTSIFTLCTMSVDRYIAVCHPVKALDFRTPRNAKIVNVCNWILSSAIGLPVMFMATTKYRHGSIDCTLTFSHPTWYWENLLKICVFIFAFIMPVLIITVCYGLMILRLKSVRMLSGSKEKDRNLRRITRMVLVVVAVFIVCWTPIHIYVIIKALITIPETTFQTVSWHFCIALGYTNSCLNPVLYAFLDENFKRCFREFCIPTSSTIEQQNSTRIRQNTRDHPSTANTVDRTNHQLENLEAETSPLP

Compound	Ki [µM]
CCNC(=O)c1cccc(C2(C)CCN(CCCCCC#N)CC2C)c1 (stereo not shown) [Example 20, 1-(5-Cyanopentyl)-3,4-dimethyl-4-(3-(N-ethyl)-amidophenyl)piperidine]	≤ 4
CCNC(=O)c1cccc(C2(C)CCN(CCCCC(C)C)CC2C)c1 (stereo not shown) [Example 18, 1-(5-Methylhexyl)-3,4-dimethyl-4-(3-(N-ethyl)-amidophenyl)piperidine]	≤ 4
CCCCCCN1CCC(C)(c2cccc(C(=O)NCC)c2)C(C)C1 (stereo not shown) [Example 8, 1-Hexyl-3,4-dimethyl-4-(3-(N-ethyl)amidophenyl)-piperidine]	≤ 4
CCCCCCN1CCC(C)(c2cccc(C(=O)NC(C)C)c2)C(C)C1 (stereo not shown) [Example 4, 1-Hexyl-3,4-dimethyl-4-(3-(N-isopropyl)amidophenyl)-piperidine]	≤ 4
